Experimental data reported in paper PMC5642494 (Oncotarget, 2017).

Tested on: pRb (Ser780)
Assay: High content imaging of Rb phosphorylation (Ser780), MDA-MB-361
Format: cell-based
Conditions: Homo sapiens, 16 hours, mean ± Stdev n = 2
Description: Relative IC50/EC50 values were determined by curve fitting to a four parameter logistic equation: Y = bottom + ((top-bottom)/ (1+exp(HillSlope*(X – LnIC50)), where X is the natural log of dose/concentration, Y is response, decreasing as X increases, top and bottom are plateaus in the same units as Y, lnIC50 is the natural log of potency, in the same log units as X, and HillSlope measures the steepness of the curve. Data were plotted using GraphPad Prism.
As controls, cells were treated with 10 µM palbociclib or vehicle ( 0.2 % v/v DMSO). Additional details for cell-based assays are provided in the Supplemental Methods. […]
www.impactjournals.com/oncotarget/ Oncotarget Supplementary Materials
Preclinical characterization of abemaciclib in hormone receptor […]
METHODS High content imaging cell-based assays for monitoring phosphorylation of Rb (ser780), G1 arrest and
Enzyme kinetics of CDK6/cyclin D3 complexes Cells were fixed with para-formaldehyde and Rb phosphorylation at Serine 780 was detected using CDK6/cyclin D3 activity was measured by the a primary mouse anti-Rb (PS780) antibody followed phosphorylation of CTRF using [g-33P] […] Plates were read in an kinase buffer containing 68 mM Hepes at pH 7.5, 6.67 mM Acumen Explorer eX3 (TTP Labtech). […]
(EDTA) was used to determine the level of background evaluated by measuring PI signal using high content 33P in the absence of enzyme activity. […]

IC50: 67 ± 37 nM
SMILES: CCN1CCN(Cc2ccc(Nc3ncc(F)c(-c4cc(F)c5nc(C)n(C(C)C)c5c4)n3)nc2)CC1 [abemaciclib, Abemaciclib]
